Laboratory results taken from patent EP0271023A2, “Use of dihydrophenylamino-acid derivatives and medicines containing them for immunomodulation and cytostasis” (GÖDECKE AKTIENGESELLSCHAFT, priority 1986, dated 1988).

Assays:
[1] = test system: allogene Hauttransplantate; assay type: in vivo, Ratte; settings: for Toxizität / Unverträglichkeit der behandelten Tiere: skin graft model, Tab. I, Azathioprin in äquipotenter Dosis; for Wirksamkeit im Hauttransplantat-Modell (immunsuppressive Aktivität): qualitative statement
Text: Die mit einer Stanze gewonnenen und vom Panniculus carnosus (einer Fett- und Muskelschicht) präparativ befreiten Transplantate werden in ebenfalls ausgestanzte Transplantatbetten des Empfängertiers plaziert. Die Transplantate werden mit speziellem Verbandmaterial bedeckt und mit einer Bandage fixiert. Endpunkt der Untersuchung ist der Tag, an dem 50 % der Tiere beide Transplantate vollständig abgestoßen haben. Die immunsuppressive Aktivität eines Wirkstoffs wird anhand der Verlängerung des normalen Transplantatüberlebens (Tage) der nicht behandelten Kontrolltiere bestimmt.

boviner Endothelzellen = assay: In vitro migration/motility of endothelial cells under angiogenic stimulus (modified Boyden chamber); assay type: cell-based, bovine; settings: for Anzahl der migrierten Zellen Kollagen-Fibronektin-Filter / Anzahl der migrierten Zellen Kollagen-Filter: Präinkubation + (Gangliosid-Mischung), innerhalb 8 Stunden, Mittelwert (± Standardabweichung) von 3 Versuchen
Text: Es wurde daher eine Untersuchung mit Cefradin als Modellsubstanz auf eine die Gefäßbildung hemmende Aktivität in einem hierzu geeigneten in vitro Model durchgeführt (s. Tab. II). In diesem Test wird der Einfluß auf die Motilität boviner Endothelzellen unter angiogenem (gefäßbildendem) Stimulus bestimmt.

[2] = cited from earlier work

| SMILES | Toxizität / Unverträglichkeit der behandelten Tiere [1] | Wirksamkeit im Hauttransplantat-Modell (immunsuppressive Aktivität) [1] | Ausbildung der Gefäßverbindung zwischen Transplantatbett und Transplantat ([1]; höchste Cefradin Dosis, in controls established by about the 5th postoperative day) | Anzahl der migrierten Zellen Kollagen-Fibronektin-Filter (boviner Endothelzellen; Cefradin 10 µg/ml Medium) | Anzahl der migrierten Zellen Kollagen-Filter (boviner Endothelzellen; Cefradin 10 µg/ml Medium) | Anzahl der migrierten Zellen Kollagen-Fibronektin-Filter (boviner Endothelzellen; Cefradin 100 µg/ml Medium) | Anzahl der migrierten Zellen Kollagen-Filter (boviner Endothelzellen; Cefradin 100 µg/ml Medium) | Anzahl der migrierten Zellen Kollagen-Fibronektin-Filter (boviner Endothelzellen; Cefradin 1000 µg/ml Medium) | Anzahl der migrierten Zellen Kollagen-Filter (boviner Endothelzellen; Cefradin 1000 µg/ml Medium) | Aktivität auf die Motilität boviner Endothelzellen (boviner Endothelzellen; concentration range corresponding to the low, already immunosuppressive in vivo doses) | Inhibition der Endothelmotilität (boviner Endothelzellen; in hoher, bereits zytotoxischer Konzentration) | Nierentoxizität ([2]; im Tierversuch, länger dauernde hochdosierte Anwendung) | leukopenische Wirkung ([2]; in vivo) |
| --- | --- | --- | --- | --- | --- | --- | --- | --- | --- | --- | --- | --- | --- |
| Cn1cnc([N+](=O)[O-])c1Sc1ncnc2nc[nH]c12 [Azathioprin, 6[(1-Methylnitroimidazol-5-yl)thio]purin] | ausgeprägt toxisch |  |  |  |  |  |  |  |  |  |  |  |  |
| CC1=C(C(=O)O)N2C(=O)[C@@H](NC(=O)[C@H](N)c3ccc(O)cc3)[C@H]2SC1 [Cefadroxil] |  | Unwirksamkeit |  |  |  |  |  |  |  |  |  |  |  |
| CC1=C(C(=O)O)N2C(=O)C(NC(=O)C(N)C3=CCC=CC3)C2SC1 (stereo not drawn) [Cefradin] | keinerlei Unverträglichkeit | außerordentlich wirksam | unterdrückte | 306 ± 74 | 173 ± 29 | 256 ± 24 | 104 ± 3 | 51 ± 6 | 23 ± 8 | nur geringfügige, wenn auch dosisabhängige Aktivität | komplette Inhibition | keine Nierentoxizität | nicht leukopenisch |
